Measurements published in patent US9920088B2, “Triterpene derivative and its anti-influenza use” (Peking University, priority 2012, dated 2018).
Entries after “also recorded” stand apart in the source; their conditions may differ.

How the values were obtained:
[1] = tested on: influenza virus A/WSN/33(H1N1); test: Cytopathic effect (CPE) inhibition assay, WSN virus in MDCK cells; type: cell-based; conditions: for EC50: H1N1|WSN, 48 h; for Viral Infectivity (%): WSN MOI=1, 48 h, lower = better inhibition; for anti-influenza virus activity: WSN, CPE
A/WSN/33 (H1N1) virus = test: Plaque inhibition assay; type: cell-based, influenza A virus; conditions: for Plaque number: 0 μM = 100
A/WSN/33(H1N1) virus = test: Time-of-addition experiment (viral NP by Western blotting); type: cell-based, influenza A virus
[2] = tested on: H1N1 pseudotype virus (A/WSN/33 (H1N1) HA/NA); test: microbe, parasite or virus in culture; type: cell-based; conditions: Influenza A virus, H1N1pp, DMSO set to zero, read-out: inhibition rate
[3] = tested on: H5N1 pseudotype virus (A/VietNam/1203/2004 (H5N1) HA/NA); test: microbe, parasite or virus in culture; type: cell-based; conditions: Influenza A virus, H5N1, read-out: inhibition rate
VSV pseudotype virus = test: microbe, parasite or virus in culture; type: cell-based; conditions: Vesicular stomatitis virus, read-out: inhibition rate
[4] = target: influenza virus (WSN strain) hemagglutinin protein (HA) (Influenza A virus, UniProt P03454); test: Hemagglutination inhibition (HI) assay; conditions: chicken erythrocytes
influenza virus (WSN strain) hemagglutinin protein (HA), sequence (P03454 18-342 limits assumed): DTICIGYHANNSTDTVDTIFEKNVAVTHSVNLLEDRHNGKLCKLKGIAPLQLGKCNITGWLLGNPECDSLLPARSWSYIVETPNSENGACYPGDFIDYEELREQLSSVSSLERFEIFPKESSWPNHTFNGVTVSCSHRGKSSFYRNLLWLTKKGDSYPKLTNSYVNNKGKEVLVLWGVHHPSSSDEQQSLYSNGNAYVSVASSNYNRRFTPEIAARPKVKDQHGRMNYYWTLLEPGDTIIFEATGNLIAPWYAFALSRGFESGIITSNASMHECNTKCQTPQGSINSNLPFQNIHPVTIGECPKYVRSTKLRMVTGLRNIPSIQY
influenza virus (WSN strain) hemagglutinin protein (HA), sequence (P03454 344-565 partner limits assumed): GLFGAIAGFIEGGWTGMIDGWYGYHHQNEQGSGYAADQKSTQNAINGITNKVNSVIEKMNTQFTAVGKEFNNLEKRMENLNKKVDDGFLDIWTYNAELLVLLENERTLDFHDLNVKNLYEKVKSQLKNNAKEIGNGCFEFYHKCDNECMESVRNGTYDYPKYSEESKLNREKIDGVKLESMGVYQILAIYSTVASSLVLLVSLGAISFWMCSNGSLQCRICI

[5] = tested on: A/Puerto Rico/8/34 (H1N1); test: CPE reduction assay, PR/8 (H1N1); type: cell-based; conditions: Influenza A virus, PR/8 (H1N1), CPE; read-out: EC50
[6] = tested on: A/JiangXi-DongHu/312/2006 (H3N2); test: microbe, parasite or virus in culture; type: cell-based, influenza A virus; conditions: Influenza A virus, H3N2
B/ShenZhen/155/2005 = test: CPE reduction assay, B/SZ/155; type: cell-based; conditions: Influenza B virus, B/SZ/155, CPE
[7] = tested on: different influenza viruses; test: CPE reduction assays on different influenza viruses; type: cell-based, influenza A virus and influenza B virus; conditions: for inhibition effect on different influenza viruses: PR/8, LN/1109, JX/312, HN/1222, B/SZ/155
MDCK cells = conditions: dog, 48 h; for Cell viability (%) / Cell viability(%): 50 μM
in vitro [8] = conditions: human
in vitro [9] = conditions: dog
in vitro [10] = conditions: human; remark: listed apart in the source
[11] = Cytotoxicity (CellTiter-Glo), MDCK cells; conditions: dog
HIV = conditions: reported by European researchers; cited from earlier work

| Structure (SMILES) | EC50 ([1]; MDCK) [µM] | Viral Infectivity (%) ([1]; Table 6, 50 μM) | Viral Infectivity (%) ([1]; Table 8, 50 μM) | anti-influenza virus activity ([1]; 50 μM) | EC50 [5] [µM] | EC50 [6] [µM] | EC50 (B/ShenZhen/155/2005) [µM] | inhibition effect on different influenza viruses [7] | CC50 (MDCK cells) [µM] | Cell viability (%) (MDCK cells) | Cell viability(%) (MDCK cells) | CC50 at 48 h (in vitro [8]) [µM] | CC50 at 48 h (in vitro [9]) [µM] | CC50 at 48 h (in vitro [10]) [µM] | further results |
| --- | --- | --- | --- | --- | --- | --- | --- | --- | --- | --- | --- | --- | --- | --- | --- |
| CC1(C)CC[C@]2(C(=O)O[C@H]3OC(CO)[C@@H](O)C(O)C3O)C(O)C[C@]3(C)C(=CC[C@@H]4[C@@]5(C)CC[C@H](O)C(C)(C)[C@@H]5CC[C@]43C)[C@@H]2C1 (stereo partly drawn) [Compound Q9, 3β,16α-dihydroxy-olean-12-en-28-oic acid-28-O-(β-D-galactoside)] | 48.7 | 21.1 | 21.1 | significant inhibitory effect on influenza virus; also recorded: significant inhibition activity against influenza virus | 17.5 ± 0.43 | 16.9 ± 5.38 | 36.2 ± 7.21 | various extent of inhibition effect | > 200 | 100.3 | 89 | > 100 | > 100 | > 100 | inhibition at 50 µM ([1]; MDCK, Table 9, 50 μM, protective rate against cytopathy, read-out: IAV inhibition rate (%)): 53.6 ± 6.16%; IC50 (A/WSN/33 (H1N1) virus; Influenza A virus, WSN, MDCK cells, read-out: IC50 (plaque formation reduction)): < 5 µM; Plaque number (A/WSN/33 (H1N1) virus; Q9 5 μM): 42.9 ± 5.8; Plaque number (A/WSN/33 (H1N1) virus; Q9 10 μM): 21.8 ± 2.5; Plaque number (A/WSN/33 (H1N1) virus; Q9 25 μM): 14.1 ± 1.7; Plaque number (A/WSN/33 (H1N1) virus; Q9 50 μM): 7.6 ± 2.5; Plaque number (A/WSN/33 (H1N1) virus; Q9 100 μM): 0; NP level reduction compared with the DMSO control (A/WSN/33(H1N1) virus; interval 0-2 h): ~62%; NP level reduction compared with the DMSO control (A/WSN/33(H1N1) virus; interval 0-10 h): around 75%; antiviral activity (A/WSN/33(H1N1) virus; intervals 2-5, 5-8, and 8-10 h): no antiviral activity was detected; stage of viral lifecycle acted on (A/WSN/33(H1N1) virus; time-of-addition): acted on the entry step of influenza virus into cells; also recorded: effective at the early stage (0-2 h) of the viral lifecycle; inhibition at 50 µM [2]: 61.9%; inhibition at 50 µM [3]: 16.8%; inhibition at 50 µM (VSV pseudotype virus): 3.8%; effect on binding of viruses to cellular receptors [4]: interfered the binding of viruses to cellular receptors |
| NC12CC3CC(CC(C3)C1)C2 [Amantadine, amantadine, reference compound] |  |  |  |  | 7.41 ± 0.21 | 8.58 ± 1.65 | > 83.2 |  |  |  |  |  |  |  | CC50 at 48 h [11]: > 200 µM |
| CC(=O)OCC1O[C@H](NC(=O)[C@]23CCC(C)(C)CC2C2=CCC4[C@@]5(C)CC[C@H](O)C(C)(C)C5CC[C@@]4(C)[C@]2(C)CC3)C(OC(C)=O)C(OC(C)=O)[C@@H]1OC(C)=O (stereo partly drawn) [Compound Y5, 3β-hydroxy-olean-12-en-28-oic acid-28-N-(2,3,4,6-tetra-O-acetyl-β-D-galactoside)] |  |  | 9.0 | significant anti-influenza virus activity; also recorded: most significant anti-influenza virus activity | 7.41 ± 0.05 | 2.72 ± 0.35 | 2.8 ± 0.74 | various extent of inhibition effect |  | 81.7 |  |  | > 100 |  | EC50 ([7]; strain not specified): < 2 µM |
| CCOC(=O)C1=C[C@@H](OC(CC)CC)[C@H](NC(C)=O)[C@@H](N)C1 [OSV-P, oseltamivir phosphate, reference compound] | 45.6 |  |  |  | > 200 | 2.06 ± 0.58 | 91.1 ± 34.5 |  | > 200 |  |  | > 100 | > 100 | > 100 |  |
| CC1(C)CC[C@]2(C(=O)O)CC[C@]3(C)C(=CC[C@@H]4[C@@]5(C)C[C@@H](O)[C@H](O)C(C)(C)[C@@H]5CC[C@]43C)[C@@H]2C1 [hawthorn acid] |  |  |  |  |  |  |  |  |  |  |  |  |  |  | inhibition rate of spread of HIV in the body (HIV): up to 80% |
| CC(=O)OCC1O[C@H](O[C@H]2C(COC(C)=O)O[C@H](OC(=O)[C@]34CCC(C)(C)C[C@H]3C3=CC[C@@H]5[C@@]6(C)CC[C@H](O)C(C)(C)[C@@H]6CC[C@@]5(C)[C@]3(C)CC4O)C(OC(C)=O)C2OC(C)=O)C(OC(C)=O)C(OC(C)=O)[C@@H]1OC(C)=O (stereo partly drawn) [Compound Q10, 3β,16α-dihydroxy-olean-12-en-28-oic acid-28-O-(hepta-O-acetyl-β-D-lactoside)] | > 100 | 100.6 |  |  |  |  |  |  |  |  | 98.1 | > 100 | > 100 | > 100 |  |
